Data reported in EP1658050B1, “SELF-NANOEMULSIFYING OILY FORMULATION FOR THE ADMINISTRATION OF POORLY WATER-SOLUBLE DRUGS” (Novagali Pharma S.A., priority 2003, dated 2005).

Experiments:
[1] = humans; after oral paclitaxel administration; cited from earlier work
[2] = Pharmacokinetic study of oral paclitaxel emulsions after cyclosporin A oral pretreatment (paclitaxel plasma levels by HPLC-UV); assay type: in vivo, FVB Wild-type mice; conditions: intravenous 10 mg/kg paclitaxel; with versus without 10 mg/kg oral CsA; wild-type mice

- increase of intravenously administered paclitaxel AUC by oral pre-treatment with cyclosporin A [2]: 2.35 fold
Structure (SMILES): CC(=O)O[C@H]1C(=O)[C@@]2(C)[C@H]([C@H](OC(=O)c3ccccc3)[C@]3(O)C[C@H](OC(=O)[C@H](O)[C@@H](NC(=O)c4ccccc4)c4ccccc4)C(C)=C1C3(C)C)[C@]1(OC(C)=O)CO[C@@H]1C[C@@H]2O [paclitaxel, Paclitaxel]
- systemic bioavailability [1]: less than 6%
